Data as given in EPA's ToxValDB 9.5.

System: Rattus norvegicus
Conditions: short-term, duration: 28 days, oral, gavage, Sprague-Dawley

O=C(O)C(F)(F)C(F)(F)C(F)(F)C(F)(F)C(F)(F)C(F)(F)C(F)(F)F [Perfluorooctanoic acid]
LOEL (F, Clinical chemistry_Alanine aminotransferase): 50 mg/kg-day | LOEL (F, Clinical chemistry_Albumin): 25 mg/kg-day | LOEL (F, Clinical chemistry_Albumin/globulin ratio): 12.5 mg/kg-day | LOEL (F, Clinical chemistry_Alkaline phosphatase): 6.25 mg/kg-day | NOEL (F, Clinical chemistry_Aspartate aminotransferase): 100 mg/kg-day | LOEL (F, Clinical chemistry_Cholesterol): 50 mg/kg-day | NOEL (F, Clinical chemistry_Creatinine kinase): 100 mg/kg-day | NOEL (F, Clinical chemistry_Direct bilirubin): 100 mg/kg-day | LOEL (F, Clinical chemistry_Free thyroxine): 100 mg/kg-day | LOEL (F, Clinical chemistry_Globulin): 12.5 mg/kg-day | NOEL (F, Clinical chemistry_Indirect bilirubin): 100 mg/kg-day | NOEL (F, Clinical chemistry_Sorbitol dehydrogenase): 100 mg/kg-day | NOEL (F, Clinical chemistry_Testosterone): 100 mg/kg-day | LOEL (F, Clinical chemistry_Thyroid stimulating hormone): 6.25 mg/kg-day | NOEL (F, Clinical chemistry_Total bile acids): 100 mg/kg-day | NOEL (F, Clinical chemistry_Total bilirubin): 100 mg/kg-day | NOEL (F, Clinical chemistry_Total protein): 100 mg/kg-day | LOEL (F, Clinical chemistry_Total thyroxine): 100 mg/kg-day | NOEL (F, Clinical chemistry_Total triiodothyronine): 100 mg/kg-day | LOEL (F, Clinical chemistry_Triglycerides): 50 mg/kg-day | LOEL (F, Gene expression_Acox1): 12.5 mg/kg-day | LOEL (F, Gene expression_Cyp2b1): 6.25 mg/kg-day | LOEL (F, Gene expression_Cyp2b2): 6.25 mg/kg-day | LOEL (F, Gene expression_Cyp4a1): 25 mg/kg-day | LOEL (F, Hematology_Erythrocytes): 12.5 mg/kg-day | LOEL (F, Hematology_Hematocrit): 12.5 mg/kg-day | LOEL (F, Hematology_Hemoglobin): 12.5 mg/kg-day | NOEL (F, Hematology_Mean corpuscular hemoglobin concentration): 100 mg/kg-day | NOEL (F, Hematology_Mean corpuscular volume): 100 mg/kg-day | NOEL (F, Hematology_Platelets): 100 mg/kg-day | NOEL (F, Hematology_Reticulocytes): 100 mg/kg-day | NOEL (F, Nonneoplastic effects_Bone marrow - Hypocellularity): 100 mg/kg-day | NOEL (F, Nonneoplastic effects_Forestomach - Epithelium, hyperplasia): 100 mg/kg-day | NOEL (F, Nonneoplastic effects_Forestomach - Inflammation, chronic active): 100 mg/kg-day | NOEL (F, Nonneoplastic effects_Kidney - Nephropathy, chronic progressive): 100 mg/kg-day | NOEL (F, Nonneoplastic effects_Liver - Hepatocyte, Necrosis): 100 mg/kg-day | LOEL (F, Nonneoplastic effects_Liver - Hepatocyte, cytoplasmic alteration): 25 mg/kg-day | LOEL (F, Nonneoplastic effects_Liver - Hepatocyte, hypertrophy): 100 mg/kg-day | NOEL (F, Nonneoplastic effects_Liver - Hepatocyte, vacuolization cytoplasmic): 100 mg/kg-day | NOEL (F, Nonneoplastic effects_Lymph nodes - Mandibular, atrophy): 100 mg/kg-day | NOEL (F, Nonneoplastic effects_Lymph nodes - Mesenteric, atrophy): 100 mg/kg-day | LOEL (F, Nonneoplastic effects_Nose - Olfactory epithelium, degeneration): 50 mg/kg-day | LOEL (F, Nonneoplastic effects_Nose - Olfactory epithelium, hyperplasia): 50 mg/kg-day | LOEL (F, Nonneoplastic effects_Nose - Olfactory epithelium, inflammation, suppurative): 100 mg/kg-day | LOEL (F, Nonneoplastic effects_Nose - Respiratory epithelium, hyperplasia): 12.5 mg/kg-day | LOEL (F, Nonneoplastic effects_Nose - Respiratory epithelium, inflammation, chronic active): 12.5 mg/kg-day | NOEL (F, Nonneoplastic effects_Spleen - Atrophy): 100 mg/kg-day | NOEL (F, Nonneoplastic effects_Spleen - Extramedullary hematopoiesis, increased): 100 mg/kg-day | NOEL (F, Nonneoplastic effects_Thymus - Atrophy): 100 mg/kg-day | NOEL (F, Nonneoplastic effects_Thymus - Lymphocyte, apoptosis): 100 mg/kg-day | LOEL (F, Nonneoplastic effects_Thyroid gland - Follicular cell hypertrophy): 100 mg/kg-day | LOEL (F, Organ weights_Liver - Absolute): 25 mg/kg-day | LOEL (F, Organ weights_Liver - Relative): 25 mg/kg-day | NOEL (F, Organ weights_R. adrenal gland - Absolute): 100 mg/kg-day | NOEL (F, Organ weights_R. adrenal gland - Relative): 100 mg/kg-day | LOEL (F, Organ weights_R. kidney - Absolute): 100 mg/kg-day | LOEL (F, Organ weights_R. kidney - Relative): 50 mg/kg-day | NOEL (F, Organ weights_Spleen - Absolute): 100 mg/kg-day | NOEL (F, Organ weights_Spleen - Relative): 100 mg/kg-day | NOEL (F, Organ weights_Thymus - Absolute): 100 mg/kg-day | NOEL (F, Organ weights_Thymus - Relative): 100 mg/kg-day | NOEL (F, Organ weights_Thyroid gland - Absolute): 100 mg/kg-day | NOEL (F, Organ weights_Thyroid gland - Relative): 100 mg/kg-day | LOEL (F, Reproductive toxicity_Altered estrous cyclicity): 100 mg/kg-day | NOEL (F, Survival rates): 100 mg/kg-day | NOEL (F, body weight): 100 mg/kg-day | LOEL (M, Clinical chemistry_Alanine aminotransferase): 0.625 mg/kg-day | NOEL (M, Clinical chemistry_Albumin): 10 mg/kg-day | LOEL (M, Clinical chemistry_Albumin/globulin ratio): 0.625 mg/kg-day | LOEL (M, Clinical chemistry_Alkaline phosphatase): 0.625 mg/kg-day | LOEL (M, Clinical chemistry_Aspartate aminotransferase): 2.5 mg/kg-day | LOEL (M, Clinical chemistry_Cholesterol): 0.625 mg/kg-day | LOEL (M, Clinical chemistry_Creatinine kinase): 2.5 mg/kg-day | LOEL (M, Clinical chemistry_Direct bilirubin): 10 mg/kg-day | LOEL (M, Clinical chemistry_Free thyroxine): 0.625 mg/kg-day | LOEL (M, Clinical chemistry_Globulin): 0.625 mg/kg-day | NOEL (M, Clinical chemistry_Sorbitol dehydrogenase): 10 mg/kg-day | NOEL (M, Clinical chemistry_Testosterone): 10 mg/kg-day | LOEL (M, Clinical chemistry_Thyroid stimulating hormone): 5 mg/kg-day | LOEL (M, Clinical chemistry_Total bile acids): 5 mg/kg-day | LOEL (M, Clinical chemistry_Total protein): 0.625 mg/kg-day | LOEL (M, Clinical chemistry_Total thyroxine): 0.625 mg/kg-day | LOEL (M, Clinical chemistry_Total triiodothyronine): 0.625 mg/kg-day | LOEL (M, Clinical chemistry_Triglycerides): 0.625 mg/kg-day | LOEL (M, Gene expression_Acox1): 0.625 mg/kg-day | LOEL (M, Gene expression_Acyl-CoA oxidase): 0.625 mg/kg-day | LOEL (M, Gene expression_Cyp2b1): 0.625 mg/kg-day | LOEL (M, Gene expression_Cyp2b2): 0.625 mg/kg-day | LOEL (M, Gene expression_Cyp4a1): 0.625 mg/kg-day | LOEL (M, Hematology_Erythrocytes): 1.25 mg/kg-day | LOEL (M, Hematology_Hematocrit): 1.25 mg/kg-day | LOEL (M, Hematology_Hemoglobin): 1.25 mg/kg-day | NOEL (M, Hematology_Mean corpuscular hemoglobin concentration): 10 mg/kg-day | LOEL (M, Hematology_Mean corpuscular volume): 10 mg/kg-day | NOEL (M, Hematology_Platelets): 10 mg/kg-day | LOEL (M, Hematology_Reticulocytes): 0.625 mg/kg-day | LOEL (M, Nonneoplastic effects_Bone marrow - Hypocellularity): 10 mg/kg-day | NOEL (M, Nonneoplastic effects_Epididymis - Duct, exfoliated germ cell): 10 mg/kg-day | NOEL (M, Nonneoplastic effects_Epididymis - Epithelium, apoptosis): 10 mg/kg-day | NOEL (M, Nonneoplastic effects_Epididymis - Hypospermia): 10 mg/kg-day | NOEL (M, Nonneoplastic effects_Forestomach - Epithelium, hyperplasia): 10 mg/kg-day | NOEL (M, Nonneoplastic effects_Forestomach - Inflammation, chronic active): 10 mg/kg-day | NOEL (M, Nonneoplastic effects_Kidney - Nephropathy, chronic progressive): 10 mg/kg-day | NOEL (M, Nonneoplastic effects_Liver - Hepatocyte, Necrosis): 10 mg/kg-day | LOEL (M, Nonneoplastic effects_Liver - Hepatocyte, cytoplasmic alteration): 0.625 mg/kg-day | LOEL (M, Nonneoplastic effects_Liver - Hepatocyte, hypertrophy): 1.25 mg/kg-day | NOEL (M, Nonneoplastic effects_Liver - Hepatocyte, vacuolization cytoplasmic): 10 mg/kg-day | NOEL (M, Nonneoplastic effects_Lymph nodes - Mandibular, atrophy): 10 mg/kg-day | NOEL (M, Nonneoplastic effects_Lymph nodes - Mesenteric, atrophy): 10 mg/kg-day | NOEL (M, Nonneoplastic effects_Nose - Olfactory epithelium, degeneration): 10 mg/kg-day | NOEL (M, Nonneoplastic effects_Nose - Olfactory epithelium, hyperplasia): 10 mg/kg-day | NOEL (M, Nonneoplastic effects_Nose - Olfactory epithelium, inflammation, suppurative): 10 mg/kg-day | LOEL (M, Nonneoplastic effects_Nose - Respiratory epithelium, hyperplasia): 0.625 mg/kg-day | LOEL (M, Nonneoplastic effects_Nose - Respiratory epithelium, inflammation, chronic active): 0.625 mg/kg-day | NOEL (M, Nonneoplastic effects_Spleen - Atrophy): 10 mg/kg-day | NOEL (M, Nonneoplastic effects_Spleen - Extramedullary hematopoiesis, increased): 10 mg/kg-day | NOEL (M, Nonneoplastic effects_Testes - Germinal epithelium, degeneration): 10 mg/kg-day | NOEL (M, Nonneoplastic effects_Testes - Interstitial cell, atrophy): 10 mg/kg-day | NOEL (M, Nonneoplastic effects_Testes - Seminiferous tubule, spermatid retention): 10 mg/kg-day | NOEL (M, Nonneoplastic effects_Thymus - Atrophy): 10 mg/kg-day | NOEL (M, Nonneoplastic effects_Thymus - Lymphocyte, apoptosis): 10 mg/kg-day | LOEL (M, Nonneoplastic effects_Thyroid gland - Follicular cell hypertrophy): 10 mg/kg-day | LOEL (M, Organ weights_Liver - Absolute): 0.625 mg/kg-day | LOEL (M, Organ weights_Liver - Relative): 0.625 mg/kg-day | NOEL (M, Organ weights_R. adrenal gland - Absolute): 10 mg/kg-day | NOEL (M, Organ weights_R. adrenal gland - Relative): 10 mg/kg-day | LOEL (M, Organ weights_R. kidney - Absolute): 1.25 mg/kg-day | LOEL (M, Organ weights_R. kidney - Relative): 0.625 mg/kg-day | NOEL (M, Organ weights_R. testis - Absolute): 10 mg/kg-day | LOEL (M, Organ weights_Spleen - Absolute): 2.5 mg/kg-day | NOEL (M, Organ weights_Spleen - Relative): 10 mg/kg-day | LOEL (M, Organ weights_Thymus - Absolute): 10 mg/kg-day | NOEL (M, Organ weights_Thymus - Relative): 10 mg/kg-day | LOEL (M, Organ weights_Thyroid gland - Absolute): 2.5 mg/kg-day | LOEL (M, Organ weights_Thyroid gland - Relative): 1.25 mg/kg-day | LOEL (M, Reproductive toxicity_Altered sperm parameters): 10 mg/kg-day | NOEL (M, Survival rates): 10 mg/kg-day | LOEL (M, body weight): 5 mg/kg-day
